± gives the expanded uncertainty stated by the source.
Legend:
[1] = molar enthalpy of vaporization or sublimation; conditions: 298.15 K; Liquid; Static calorimetry
[2] = Molar enthalpy of transition or fusion; conditions: Crystal; Adiabatic calorimetry
[3] = for molar entropy: 101.33 kPa, Vacuum adiabatic calorimetry; for vapor or sublimation pressure: Closed cell (Static) method
[4] = molar heat capacity at constant pressure; conditions: 101.33 kPa, Vacuum adiabatic calorimetry

CN=C=O [methyl isocyanate]
Conditions	Molar enthalpy of transition or fusion [kcal/mol]	molar enthalpy [kcal/mol]
[1]	–	6.871 ± 0.0359
[2]	1.782 ± 0.00382	–

Conditions	Triple point temperature [K]	molar entropy [J/K/mol]	molar heat capacity at constant pressure [J/K/mol]	vapor or sublimation pressure [kPa]
[3], 20 K, Crystal	–	2.44 ± 0.037	–	–
[3], 30 K, Crystal	–	6.933 ± 0.081	–	–
[3], 40 K, Crystal	–	12.87 ± 0.099	–	–
[3], 50 K, Crystal	–	19.5 ± 0.12	–	–
[3], 60 K, Crystal	–	26.39 ± 0.14	–	–
[3], 70 K, Crystal	–	33.31 ± 0.16	–	–
[3], 80 K, Crystal	–	40.14 ± 0.18	–	–
[3], 90 K, Crystal	–	46.89 ± 0.37	–	–
[3], 100 K, Crystal	–	53.42 ± 0.38	–	–
[3], 110 K, Crystal	–	59.72 ± 0.39	–	–
[3], 120 K, Crystal	–	65.78 ± 0.4	–	–
[3], 130 K, Crystal	–	71.59 ± 0.41	–	–
[3], 140 K, Crystal	–	77.17 ± 0.42	–	–
[3], 150 K, Crystal	–	82.52 ± 0.42	–	–
[3], 160 K, Crystal	–	87.67 ± 0.43	–	–
[3], 170 K, Crystal	–	92.65 ± 0.44	–	–
[3], 178.47 K, Liquid	–	–	–	0.024 ± 0.0067
[3], 180 K, Liquid	–	139.42 ± 0.51	–	–
[3], 184.03 K, Liquid	–	–	–	0.036 ± 0.0067
[3], 189.11 K, Liquid	–	–	–	0.04666 ± 0.0067
[3], 190 K, Liquid	–	145 ± 0.52	–	–
[3], 194.19 K, Liquid	–	–	–	0.06666 ± 0.0067
[3], 199.43 K, Liquid	–	–	–	0.1293 ± 0.0067
[3], 200 K, Liquid	–	150.29 ± 0.53	–	–
[3], 204.46 K, Liquid	–	–	–	0.2053 ± 0.0067
[3], 209.49 K, Liquid	–	–	–	0.3106 ± 0.0067
[3], 210 K, Liquid	–	155.31 ± 0.53	–	–
[3], 214.49 K, Liquid	–	–	–	0.4826 ± 0.0067
[3], 219.48 K, Liquid	–	–	–	0.7226 ± 0.008
[3], 220 K, Liquid	–	160.1 ± 0.54	–	–
[3], 224.44 K, Liquid	–	–	–	1.048 ± 0.012
[3], 229.43 K, Liquid	–	–	–	1.5 ± 0.013
[3], 230 K, Liquid	–	164.68 ± 0.55	–	–
[3], 234.35 K, Liquid	–	–	–	2.12 ± 0.015
[3], 239.21 K, Liquid	–	–	–	2.938 ± 0.016
[3], 240 K, Liquid	–	169.08 ± 0.55	–	–
[3], 244.16 K, Liquid	–	–	–	4.036 ± 0.019
[3], 249.07 K, Liquid	–	–	–	5.45 ± 0.021
[3], 250 K, Liquid	–	173.31 ± 0.56	–	–
[3], 253.98 K, Liquid	–	–	–	7.286 ± 0.027
[3], 258.88 K, Liquid	–	–	–	9.597 ± 0.031
[3], 260 K, Liquid	–	177.38 ± 0.57	–	–
[3], 263.72 K, Liquid	–	–	–	12.47 ± 0.037
[3], 268.59 K, Liquid	–	–	–	16.03 ± 0.045
[3], 270 K, Liquid	–	181.33 ± 0.57	–	–
[3], 273.4 K, Liquid	–	–	–	20.31 ± 0.055
[3], 278.1 K, Liquid	–	–	–	25.44 ± 0.065
[3], 280 K, Liquid	–	185.16 ± 0.58	–	–
[3], 282.71 K, Liquid	–	–	–	31.41 ± 0.079
[3], 287.27 K, Liquid	–	–	–	38.39 ± 0.095
[3], 290 K, Liquid	–	188.89 ± 0.58	–	–
[3], 296.38 K, Liquid	–	–	–	56.22 ± 0.13
[3], 297.07 K, Liquid	–	–	–	57.78 ± 0.13
[3], 300 K, Liquid	–	192.52 ± 0.59	–	–
[3], Crystal, Adiabatic calorimetry	178.46 ± 0.084	–	–	–
[4], 14.71 K, Crystal	–	–	2.971 ± 0.032	–
[4], 15.61 K, Crystal	–	–	3.494 ± 0.035	–
[4], 16.68 K, Crystal	–	–	4.234 ± 0.04	–
[4], 18.13 K, Crystal	–	–	5.318 ± 0.045	–
[4], 19.93 K, Crystal	–	–	6.837 ± 0.051	–
[4], 20 K, Crystal	–	–	6.9 ± 0.05	–
[4], 21.81 K, Crystal	–	–	8.41 ± 0.057	–
[4], 25.1 K, Crystal	–	–	11.4 ± 0.06	–
[4], 27.08 K, Crystal	–	–	13.31 ± 0.07	–
[4], 29.42 K, Crystal	–	–	15.5 ± 0.07	–
[4], 30 K, Crystal	–	–	16.07 ± 0.07	–
[4], 31.96 K, Crystal	–	–	17.95 ± 0.08	–
[4], 34.72 K, Crystal	–	–	20.64 ± 0.08	–
[4], 38.26 K, Crystal	–	–	23.96 ± 0.09	–
[4], 40 K, Crystal	–	–	25.53 ± 0.09	–
[4], 42.59 K, Crystal	–	–	27.81 ± 0.1	–
[4], 47.01 K, Crystal	–	–	31.56 ± 0.1	–
[4], 50 K, Crystal	–	–	34.07 ± 0.11	–
[4], 51.57 K, Crystal	–	–	35.36 ± 0.11	–
[4], 56.6 K, Crystal	–	–	39.11 ± 0.12	–
[4], 60 K, Crystal	–	–	41.49 ± 0.12	–
[4], 60.37 K, Crystal	–	–	41.76 ± 0.12	–
[4], 62.3 K, Crystal	–	–	43.18 ± 0.13	–
[4], 65.89 K, Crystal	–	–	45.61 ± 0.13	–
[4], 70 K, Crystal	–	–	48.2 ± 0.14	–
[4], 71.87 K, Crystal	–	–	49.37 ± 0.14	–
[4], 78.77 K, Crystal	–	–	53.47 ± 0.15	–
[4], 80 K, Crystal	–	–	54.31 ± 0.15	–
[4], 85.79 K, Crystal	–	–	57.74 ± 0.16	–
[4], 88.54 K, Crystal	–	–	59.08 ± 0.16	–
[4], 90 K, Crystal	–	–	59.83 ± 0.26	–
[4], 91.98 K, Crystal	–	–	60.67 ± 0.26	–
[4], 94.33 K, Crystal	–	–	61.76 ± 0.26	–
[4], 97.68 K, Crystal	–	–	63.18 ± 0.26	–
[4], 100 K, Crystal	–	–	64.14 ± 0.26	–
[4], 100.44 K, Crystal	–	–	64.31 ± 0.26	–
[4], 102.2 K, Crystal	–	–	64.94 ± 0.27	–
[4], 104.38 K, Crystal	–	–	65.94 ± 0.27	–
[4], 109.48 K, Crystal	–	–	67.86 ± 0.27	–
[4], 110 K, Crystal	–	–	68.03 ± 0.27	–
[4], 112.6 K, Crystal	–	–	68.66 ± 0.27	–
[4], 115.84 K, Crystal	–	–	69.87 ± 0.27	–
[4], 118.15 K, Crystal	–	–	70.67 ± 0.27	–
[4], 120 K, Crystal	–	–	71.25 ± 0.27	–
[4], 120.45 K, Crystal	–	–	71.25 ± 0.27	–
[4], 121.38 K, Crystal	–	–	71.63 ± 0.27	–
[4], 126.84 K, Crystal	–	–	73.26 ± 0.27	–
[4], 128.41 K, Crystal	–	–	73.55 ± 0.27	–
[4], 130 K, Crystal	–	–	73.97 ± 0.27	–
[4], 134.41 K, Crystal	–	–	75.06 ± 0.28	–
[4], 134.59 K, Crystal	–	–	75.1 ± 0.28	–
[4], 135.09 K, Crystal	–	–	75.27 ± 0.28	–
[4], 136.89 K, Crystal	–	–	75.48 ± 0.28	–
[4], 136.94 K, Crystal	–	–	75.65 ± 0.28	–
[4], 140 K, Crystal	–	–	76.36 ± 0.28	–
[4], 141.89 K, Crystal	–	–	76.82 ± 0.28	–
[4], 141.97 K, Crystal	–	–	76.94 ± 0.28	–
[4], 142.35 K, Crystal	–	–	76.96 ± 0.28	–
[4], 146.02 K, Crystal	–	–	77.82 ± 0.28	–
[4], 148.22 K, Crystal	–	–	78.32 ± 0.28	–
[4], 149.33 K, Crystal	–	–	78.45 ± 0.28	–
[4], 150 K, Crystal	–	–	78.7 ± 0.28	–
[4], 151.79 K, Crystal	–	–	79.04 ± 0.28	–
[4], 155.37 K, Crystal	–	–	79.91 ± 0.28	–
[4], 156.39 K, Crystal	–	–	80 ± 0.28	–
[4], 160 K, Crystal	–	–	81 ± 0.28	–
[4], 160.19 K, Crystal	–	–	79.83 ± 0.28	–
[4], 161.8 K, Crystal	–	–	81.59 ± 0.28	–
[4], 163.79 K, Crystal	–	–	82.42 ± 0.28	–
[4], 166.13 K, Crystal	–	–	83.6 ± 0.28	–
[4], 167.44 K, Crystal	–	–	83.09 ± 0.28	–
[4], 168.2 K, Crystal	–	–	82.26 ± 0.28	–
[4], 169.15 K, Crystal	–	–	83.01 ± 0.28	–
[4], 169.49 K, Crystal	–	–	82.34 ± 0.29	–
[4], 170 K, Crystal	–	–	83.39 ± 0.28	–
[4], 171.56 K, Crystal	–	–	83.51 ± 0.28	–
[4], 172.5 K, Crystal	–	–	83.39 ± 0.28	–
[4], 173.3 K, Crystal	–	–	84.35 ± 0.29	–
[4], 180 K, Liquid	–	–	103.4 ± 0.3	–
[4], 183.24 K, Liquid	–	–	103.39 ± 0.3	–
[4], 186.5 K, Liquid	–	–	103.34 ± 0.3	–
[4], 187.36 K, Liquid	–	–	103.26 ± 0.3	–
[4], 190 K, Liquid	–	–	103.2 ± 0.3	–
[4], 192.13 K, Liquid	–	–	103.09 ± 0.3	–
[4], 196.44 K, Liquid	–	–	103.09 ± 0.3	–
[4], 197.5 K, Liquid	–	–	102.93 ± 0.3	–
[4], 198.47 K, Liquid	–	–	103 ± 0.3	–
[4], 200 K, Liquid	–	–	103 ± 0.3	–
[4], 201 K, Liquid	–	–	102.97 ± 0.3	–
[4], 202.92 K, Liquid	–	–	103 ± 0.3	–
[4], 210 K, Liquid	–	–	103 ± 0.3	–
[4], 211.33 K, Liquid	–	–	103 ± 0.3	–
[4], 219.74 K, Liquid	–	–	103 ± 0.3	–
[4], 220 K, Liquid	–	–	103 ± 0.3	–
[4], 228.75 K, Liquid	–	–	102.9 ± 0.3	–
[4], 230 K, Liquid	–	–	103.1 ± 0.3	–
[4], 238.24 K, Liquid	–	–	103.3 ± 0.3	–
[4], 240 K, Liquid	–	–	103.4 ± 0.3	–
[4], 247.64 K, Liquid	–	–	103.6 ± 0.3	–
[4], 250 K, Liquid	–	–	103.8 ± 0.3	–
[4], 257.03 K, Liquid	–	–	104.1 ± 0.3	–
[4], 260 K, Liquid	–	–	104.3 ± 0.3	–
[4], 266.32 K, Liquid	–	–	104.6 ± 0.3	–
[4], 270 K, Liquid	–	–	104.9 ± 0.3	–
[4], 275.54 K, Liquid	–	–	105.4 ± 0.3	–
[4], 280 K, Liquid	–	–	105.8 ± 0.3	–
[4], 284.64 K, Liquid	–	–	106.1 ± 0.3	–
[4], 290 K, Liquid	–	–	106.7 ± 0.3	–
[4], 293.07 K, Liquid	–	–	107 ± 0.3	–
[4], 300 K, Liquid	–	–	107.7 ± 0.3	–
[4], 301.23 K, Liquid	–	–	107.7 ± 0.3	–
